Values quoted from earlier work as cited in patent publication US20250231185A1, “Coronavirus T Cell Epitopes, Megapools and Uses Thereof” (La Jolla Institute for Immunology, priority 2021, published 2025).

Tested on: CD8+ T cells
Conditions: CD8R (D) megapool epitopes; dominant = recognized by 3 or more donors/different studies; cited from earlier work

| Substance | Dominant |
| --- | --- |
| 1781 (GTDLEGNFY) [compound 1781] | Yes (more dominant epitopes are defined by being recognized by 3 or more donors/different studies) |
| 1810 (HLVDFQVTI) [compound 1810] | Yes (more dominant epitopes are defined by being recognized by 3 or more donors/different studies) |
| 1800 (MDLFMRIFTI) [compound 1800] | Yes (more dominant epitopes are defined by being recognized by 3 or more donors/different studies) |
| 1816 (IQYIDIGNY) [compound 1816] | Yes (more dominant epitopes are defined by being recognized by 3 or more donors/different studies) |
| 1726 (RILGAGCFV) [compound 1726] | Yes (more dominant epitopes are defined by being recognized by 3 or more donors/different studies) |
| 1778 (TPKYKFVRI) [compound 1778] | Yes (more dominant epitopes are defined by being recognized by 3 or more donors/different studies) |

Same assay, conditions: CD8RE megapool peptides (non-spike SARS-CoV-2 antigens); dominant epitope Yes/No; cited from earlier work

| Substance | Dominant |
| --- | --- |
| 3041 (VYFLQSINF) [compound 3041] | Yes (more dominant epitopes are defined by being recognized by 3 or more donors/different studies) |
| 2980 (ALLADKFPV) [compound 2980] | Yes (more dominant epitopes are defined by being recognized by 3 or more donors/different studies) |
| 3008 (FLPRVFSAV) [compound 3008] | Yes (more dominant epitopes are defined by being recognized by 3 or more donors/different studies) |
| 3020 (FLLPSLATV) [compound 3020] | Yes (more dominant epitopes are defined by being recognized by 3 or more donors/different studies) |
| 2922 (KMKDLSPRW) [compound 2922] | Yes (more dominant epitopes are defined by being recognized by 3 or more donors/different studies) |
| 2983 (MMISAGFSL) [compound 2983] | Yes (more dominant epitopes are defined by being recognized by 3 or more donors/different studies) |
| 3025 (SEFSSLPSY) [compound 3025] | Yes (more dominant epitopes are defined by being recognized by 3 or more donors/different studies) |
| 3007 (STFNVPMEK) [compound 3007] | Yes (more dominant epitopes are defined by being recognized by 3 or more donors/different studies) |

Same assay, conditions: SARS-CoV-2-derived CD8 epitopes; dominant = recognized by 3 or more donors/different studies; cited from earlier work

| Substance | Dominant |
| --- | --- |
| 628 (PTDNYITTY) [compound 628] | Yes (more dominant epitopes are defined by being recognized by 3 or more donors/different studies) |
| 514 (VLQLPQGTTL) [compound 514] | Yes (more dominant epitopes are defined by being recognized by 3 or more donors/different studies) |
| 542 (MEVTPSGTWL) [compound 542] | Yes (more dominant epitopes are defined by being recognized by 3 or more donors/different studies) |
| 502 (SPRWYFYYL) [compound 502] | Yes (more dominant epitopes are defined by being recognized by 3 or more donors/different studies) |

Same assay, conditions: SARS-CoV-2 Ag S; T cell type recognizing the epitope; cited from earlier work

| Substance | Restriction |
| --- | --- |
| 1417 (AEIRASANL) [compound 1417] | CD8 |
| 1426 (QSAPHGVVF) [compound 1426] | CD8 |
| 1306 (RLFRKSNLK) [compound 1306] | CD8 |
| 1385 (LLTDEMIAQY) [compound 1385] | CD8 |
| 1338 (RVYSTGSNV) [compound 1338] | CD8 |

Same assay, conditions: T cell subset (CD4 or CD8) recognizing the SARS-CoV-2-derived epitope; cited from earlier work

| Substance | Restriction |
| --- | --- |
| 628 (PTDNYITTY) [compound 628] | CD8 |
| 514 (VLQLPQGTTL) [compound 514] | CD8 |
| 542 (MEVTPSGTWL) [compound 542] | CD8 |
| 554 (KKQQTVTLL) [compound 554] | CD8 |
| 502 (SPRWYFYYL) [compound 502] | CD8 |
| 650 (NLKTLLSL) [compound 650] | CD8 |
| 673 (GEAANFCAL) [compound 673] | CD8 |

Same assay, conditions: T cell type (CD4 or CD8) recognizing the SARS-CoV-2 epitope; cited from earlier work

| Substance | Restriction |
| --- | --- |
| 999 (LYYQNNVFM) [compound 999] | CD8 |
| 929 (VPHISRQRL) [compound 929] | CD8 |
| 1016 (WEPEFYEAM) [compound 1016] | CD8 |
| 1006 (YLPYPDPSRIL) [compound 1006] | CD8 |
| 971 (FAYTKRNVI) [compound 971] | CD8 |
| 1036 (YYPSARIVY) [compound 1036] | CD8 |
